In patent US7923204B2, “Forward mutation assay based on 5-fluorouracil resistance” (priority 2003, dated 2011):
Structures can show the parent of a compound that is named as a salt. Where two headings read alike, the source gives them in different places. Marks after values point to notes of the source that are not given here.

Legend:
[1] = test system: FU100; conditions: for response in the 5-FU Assay (in words): text and figure legend (FIG. 6), with or without S9
Experimental: Briefly, in order to practice the disclosed mutation assay one-ml aliquots of exponentially growing bacteria are exposed to the test agent for two hours in the presence and absence of a metabolic activation system, such as a mammalian (i.e., rat, hamster or human) liver homogenate (S9-fraction or liver microsomal enzymes). The aliquots are then diluted, allowed to grow for 3 hours, and assessed for treatment-related toxicity/inhibition by optical density. The cultures are subsequently diluted a second time and grown overnight to permit full recovery from toxicity and to allow expression of the FU^R phenotype. Samples of the cultures are then plated in 384-well microtiter dishes in the presence of 2 μg/ml 5-FU and the pH-sensitive indicator bromcresol purple. Three days later positive wells containing FU^R colonies are detected by their yellow color and enumerated. Treated cultures are then compared to control plates to determine genotoxic activity.
For each mutation experiment, two frozen 1-ml aliquots of FU100 were quickly thawed in a 37° C. water bath, pelleted by centrifugation, washed to remove the DMSO, and suspended in 35 mL of MinE medium. The culture was shaken for approximately 1 hour at 37° C. until the optical density at 600 nm (OD600) reached the target density of 0.3. A 16-ml aliquot of culture was added to each of two 50-ml tubes containing 3.6 ml of a NADPH-generating system (5.6 mM glucose-6-phosphate, 4.5 mM NADP+, 5 mM sucrose, 110 mM Na2HPO4, 37 mM KCl, and 9 mM MgCl2) and either 0.4 ml rat liver S-9 or an equal volume of sodium phosphate buffer. Aliquots of these mixtures were distributed into three 12-well cluster dishes (one for exposure with S-9, one for exposure without S-9, one for controls with and without S-9), and exposed to test compounds as 1-ml aliquots for 2 hour as outlined in FIG. 1.
Following treatment, the 1-ml aliquots were transferred into 9 ml of warm MinE medium in a 50 ml tube and incubated at 37° C. on a rotary wheel for 3 hours. Next, 20 ml of medium was added to each culture tube and 0.25 ml aliquots were transferred to a 96-well plate for OD600 measurements to assess toxicity (OD Day 1). […] Bulk cultures were then incubated overnight in the dark at 30° C. to permit recovery from toxicity and to allow time for the test cells to express the FU^R phenotype.
The next day, OD600 was again assessed to adjust cell number plated on 5-FU plates (OD Day 2; 100 μl of the culture diluted with 150 μl MinE medium for OD600 measurements). For plating, a 35 μl aliquot of each culture was added to 31.4 mL of MinE medium with 2 μg/ml of 5-FU and 10 μg/ml of bromcresol purple. The mixture was then dispersed into a 384-well plate (75 μl/well) and placed at 37° C. for 3 days in a humidified incubator.
The data obtained for both survival (OD day 1), relative number of cells plated (OD day 2), and number of positive wells were imported into an Excel template.
Table 8 summarizes the criteria for positive result in 5-FU assay using the FU100 tester strain described and claimed herein. […] A positive compound was defined when two or more doses met the aforementioned criteria.

[2] = test system: FU100
[3] = test system: Salmonella; conditions: cited from earlier work
[4] = test system: sister chromatid exchange; conditions: cited from earlier work
[5] = test system: chromosome aberrations; conditions: cited from earlier work
[6] = in the presence of S9 activation (+), FU100, 2 h exposure
[7] = in the presence of S9 activation (+), lowest dose tested giving a positive response
[8] = without S9 activation (−), FU100, 2 h exposure
[9] = without S9 activation (−), lowest dose tested giving a positive response
[10] = in the presence of S9 activation (+), approximate, first dose with greater than 50% survival by optical density on Day 1
[11] = without S9 activation (−), approximate, first dose with greater than 50% survival by optical density on Day 1
[12] = NTP Results Report 12 Aug. 2002 or cited reference (footnotes f, g, i, j)
[13] = NTP Results Report 12 Aug. 2002

Row | SMILES | Results (5-FU assay) [1, 6] | Lowest Positive Dose [1, 7] | Results (5-FU assay) [1, 8] | Lowest Positive Dose [1, 9] | LD50 [2, 10] | LD50 [2, 11] | NTP Results: SA = Salmonella [3, 12] | other results
1 | Nc1ccc2cc3ccccc3cc2c1 [2-Aminoanthracene] | Pos | 0.2 µg/mL | Pos | 0.6 µg/mL | >2 µg/mL | >10 µg/mL | + | NTP Results: SC = sister chromatid exchange [4, 13]: +
2 | O=[N+]([O-])c1ccc2c(c1)Cc1ccccc1-2 [2-Nitrofluorene] | Pos | 0.6 µg/mL | Pos | 0.02 µg/mL | >2 µg/mL | >1 µg/mL |  | 
3 | O=[N+]([O-])c1cc[n+]([O-])c2ccccc12 [4-Nitroquinoline N-oxide] |  |  |  |  | >0.5 µg/mL | >0.5 µg/mL |  | 
4 | OCc1ccccc1 [Benzyl Alcohol] | Neg |  | Neg |  | >500 µg/mL | >900 µg/mL | − | NTP Results: CA = chromosome aberrations [5, 13]: +; NTP Results: SC = sister chromatid exchange [4, 13]: +^w
5 | O=[N+]([O-])c1ccc(O)cc1 [p-Nitrophenol] | Neg |  | Neg |  | >50 µg/mL | >50 µg/mL | − | NTP Results: CA = chromosome aberrations [5, 13]: +; NTP Results: SC = sister chromatid exchange [4, 13]: −
6 | CN(C)N=O [N-Nitrosodimethylamine] | Pos | 360 µg/mL | Neg |  | >2000 µg/mL | >2000 µg/mL | (SA+, CA+, SC+) | NTP Results: CA = chromosome aberrations [5, 13]: (SA+, CA+, SC+); NTP Results: SC = sister chromatid exchange [4, 13]: (SA+, CA+, SC+)
7 | CC(C)(OOC(C)(C)c1ccccc1)c1ccccc1 [Dicumyl peroxide] | Neg |  | Neg |  | >5000 µg/mL | >5000 µg/mL | (SA−) | 
8 | COS(C)(=O)=O [Methyl Methanesulfonate] | Pos | 10 µg/mL | Pos | 0.6 µg/mL | >100 µg/mL | >100 µg/mL | (SA+) | plating efficiency of FU^R mutants in treated culture at the end of day 1 ([1]; before overnight grow back was introduced): significantly suppressed; response in the 5-FU Assay (in words) [1]: positive compounds in non-toxic concentrations
9 | CCC1(c2ccccc2)C(=O)NC(=O)NC1=O [Phenobarbital] | Pos^w | 1500 µg/mL | Pos^w | 2800 µg/mL | >500 µg/mL | >500 µg/mL |  | 
10 | O=c1ccc2ccccc2o1 [Coumarin] | Pos | 50 µg/mL | Neg |  | >150 µg/mL | >900 µg/mL |  | 
11 | O=Cc1ccccc1 [Benzaldehyde] | Neg |  | Neg |  | >150 µg/mL | >150 µg/mL |  | 
12 | Cc1cccc(Nc2cc(Cl)nc(SCC(=O)O)n2)c1C [Wyeth 14,643] | Neg |  | Neg |  | >900 µg/mL | >900 µg/mL | (SA−) | 
13 | CC/C(=C(\c1ccccc1)c1ccc(OCCN(C)C)cc1)c1ccccc1 [Tamoxifen] |  |  |  |  | >15 µg/mL | >3 µg/mL |  | Results (5-FU assay) [1]: Neg
14 | CCCCCCCCCCCCOS(=O)(=O)[O-].[Na+] [Sodium Dodecyl Sulfate] | Neg |  | Neg |  | >35 µg/mL | >20 µg/mL |  | 
15 | C[C@H](CCC(=O)O)[C@H]1CC[C@H]2[C@@H]3CC[C@@H]4C[C@H](O)CC[C@]4(C)[C@H]3CC[C@]12C [Lithocholic Acid] | Neg |  | Neg |  | >2000 µg/mL | >2000 µg/mL |  | 
16 | Nc1ccc2cc3ccc(N)cc3nc2c1 [Proflavine HCl] | Pos | 0.1 µg/mL | Pos^w | 16 µg/mL | >10 µg/mL | >10 µg/mL | (SA+) | 
17 | CN(N=O)C(N)=O [N-Nitroso-N-methylurea] | Pos | 5.0 µg/mL | Pos | 5.0 µg/mL | >90 µg/mL | >90 µg/mL | (SA+) | 
18 | CC(O)CCl (centres unmarked) [1-Chloro-2-propanol] |  |  |  |  |  |  |  | Lowest Positive Dose [1]: 2800 µg/mL; Results (5-FU assay) [1]: Pos^w; Results (5-FU assay) ([1]; s9): Neg; NTP Results: SA = Salmonella [3]: (SA+, CA+, SC+); NTP Results: CA = chromosome aberrations [5]: (SA+, CA+, SC+); NTP Results: SC = sister chromatid exchange [4]: (SA+, CA+, SC+)
19 | c1ccc2c(c1)cc1ccc3cccc4ccc2c1c34 [Benzo[a]pyrene] |  |  |  |  | >20 µg/mL | >20 µg/mL |  | 
20 | O=C1NS(=O)(=O)c2ccccc21 [Saccharin] |  |  |  |  |  |  |  | Results (5-FU assay) [1]: Neg; LD50 ([2]; Salmonella typhimurium): >5000 µg/mL; NTP Results: SA = Salmonella [3]: (SA−)
21 | COc1ccc2nc3cc(Cl)ccc3c(NCCCNCCCl)c2c1 [ICR-191] | Pos | 3.2 µg/mL | Pos | 0.2 µg/mL | >10 µg/mL | >3 µg/mL | (SA+) | response in the 5-FU Assay (in words) [1]: positive compounds in non-toxic concentrations
